Experiments:
Test in all cases: relative viability (nuclei count vs DMSO), 5 days (fraction); higher = more cells survive
BEN = system: BEN
Procedure, shortened: (§1)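 Lung cancer cell lines in 1536-well plates got either a single drug or a fixed anchor-drug dose together with five library-drug doses (not always all listed) in √10 steps, by pin tool, on the day after seeding. Nuclei were counted after 5 days, and relative viability is the treated-to-vehicle ratio of nuclei counts. Values are medians of duplicate plates.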

CAL-12T = system: CAL-12T
Procedure, shortened: as §1

EKVX = system: EKVX
Procedure, shortened: as §1

HCC-366 = system: HCC-366
Procedure, shortened: as §1

HCC-44 = system: HCC-44
Procedure, shortened: as §1

LOU-NH91 = system: LOU-NH91
Procedure, shortened: as §1

LU99A = system: LU99A
Procedure, shortened: as §1

NCI-H1355 = system: NCI-H1355
Procedure, shortened: as §1

NCI-H1395 = system: NCI-H1395
Procedure, shortened: as §1

NCI-H1437 = system: NCI-H1437
Procedure, shortened: as §1

NCI-H1563 = system: NCI-H1563
Procedure, shortened: as §1

NCI-H1650 = system: NCI-H1650
Procedure, shortened: as §1

NCI-H1651 = system: NCI-H1651
Procedure, shortened: as §1

NCI-H1734 = system: NCI-H1734
Procedure, shortened: as §1

NCI-H1755 = system: NCI-H1755
Procedure, shortened: as §1

NCI-H1975 = system: NCI-H1975
Procedure, shortened: as §1

NCI-H2023 = system: NCI-H2023
Procedure, shortened: as §1

NCI-H2085 = system: NCI-H2085
Procedure, shortened: as §1

NCI-H358 = system: NCI-H358
Procedure, shortened: as §1

NCI-H441 = system: NCI-H441
Procedure, shortened: as §1

NCI-H460 = system: NCI-H460
Procedure, shortened: as §1

NCI-H838 = system: NCI-H838
Procedure, shortened: as §1

For CC1(C)CCC(c2ccc(Cl)cc2)=C(CN2CCN(c3ccc(C(=O)NS(=O)(=O)c4ccc(N[C@H](CCN5CCOCC5)CSc5ccccc5)c(S(=O)(=O)C(F)(F)F)c4)cc3)CC2)C1 [Navitoclax] + CS(=O)(=O)N1CCN(Cc2cc3nc(-c4cccc5[nH]ncc45)nc(N4CCOCC4)c3s2)CC1 [Pictilisib] (partner 1 µM), the relative viability (BEN; first compound 0.005 µM) was 0.548, the relative viability (BEN; first compound 0.01581 µM) was 0.678 and the relative viability (BEN; first compound 0.05 µM) was 0.625. It also gave a relative viability (BEN; first compound 0.1581 µM) of 0.602, a relative viability (BEN; first compound 0.5 µM) of 0.364 and a relative viability (CAL-12T; first compound 0.005 µM) of 0.549. It also gave a relative viability (CAL-12T; first compound 0.01581 µM) of 0.419, a relative viability (CAL-12T; first compound 0.05 µM) of 0.404 and a relative viability (CAL-12T; first compound 0.1581 µM) of 0.522. The relative viability (CAL-12T; first compound 0.5 µM) was 0.393, the relative viability (EKVX; first compound 0.005 µM) was 0.487 and the relative viability (EKVX; first compound 0.01581 µM) was 0.611. For the same compound, the relative viability (EKVX; first compound 0.05 µM) was 0.427, the relative viability (EKVX; first compound 0.1581 µM) was 0.41 and the relative viability (EKVX; first compound 0.5 µM) was 0.452. For the same compound, the relative viability (HCC-366; first compound 0.005 µM) was 0.159, the relative viability (HCC-366; first compound 0.01581 µM) was 0.174 and the relative viability (HCC-366; first compound 0.05 µM) was 0.207. For the same compound, the relative viability (HCC-366; first compound 0.1581 µM) was 0.107, the relative viability (HCC-366; first compound 0.5 µM) was 0.15 and the relative viability (HCC-44; first compound 0.005 µM) was 0.656. The relative viability (HCC-44; first compound 0.01581 µM) was 0.641, the relative viability (HCC-44; first compound 0.05 µM) was 0.849 and the relative viability (HCC-44; first compound 0.1581 µM) was 0.57. It also gave a relative viability (HCC-44; first compound 0.5 µM) of 0.456, a relative viability (LOU-NH91; first compound 0.005 µM) of 0.51 and a relative viability (LOU-NH91; first compound 0.01581 µM) of 0.513. For the same compound, the relative viability (LOU-NH91; first compound 0.05 µM) was 0.556, the relative viability (LOU-NH91; first compound 0.1581 µM) was 0.496 and the relative viability (LOU-NH91; first compound 0.5 µM) was 0.393. It also gave a relative viability (LU99A; first compound 0.005 µM) of 0.361, a relative viability (LU99A; first compound 0.01581 µM) of 0.35 and a relative viability (LU99A; first compound 0.05 µM) of 0.336. The relative viability (LU99A; first compound 0.1581 µM) was 0.34, the relative viability (LU99A; first compound 0.5 µM) was 0.325 and the relative viability (NCI-H1355; first compound 0.005 µM) was 0.461. It also gave a relative viability (NCI-H1355; first compound 0.01581 µM) of 0.42, a relative viability (NCI-H1355; first compound 0.05 µM) of 0.416 and a relative viability (NCI-H1355; first compound 0.1581 µM) of 0.497. It also gave a relative viability (NCI-H1355; first compound 0.5 µM) of 0.427, a relative viability (NCI-H1395; first compound 0.005 µM) of 0.692 and a relative viability (NCI-H1395; first compound 0.01581 µM) of 0.645. The relative viability (NCI-H1395; first compound 0.05 µM) was 0.563, the relative viability (NCI-H1395; first compound 0.1581 µM) was 0.818 and the relative viability (NCI-H1395; first compound 0.5 µM) was 0.67. It also gave a relative viability (NCI-H1437; first compound 0.005 µM) of 0.409, a relative viability (NCI-H1437; first compound 0.01581 µM) of 0.537 and a relative viability (NCI-H1437; first compound 0.05 µM) of 0.501. For the same compound, the relative viability (NCI-H1437; first compound 0.1581 µM) was 0.445, the relative viability (NCI-H1437; first compound 0.5 µM) was 0.477 and the relative viability (NCI-H1563; first compound 0.005 µM) was 0.603. It also gave a relative viability (NCI-H1563; first compound 0.01581 µM) of 0.667, a relative viability (NCI-H1563; first compound 0.05 µM) of 0.577 and a relative viability (NCI-H1563; first compound 0.1581 µM) of 0.583. The relative viability (NCI-H1563; first compound 0.5 µM) was 0.693, the relative viability (NCI-H1650; first compound 0.005 µM) was 0.541 and the relative viability (NCI-H1650; first compound 0.01581 µM) was 0.737. For the same compound, the relative viability (NCI-H1650; first compound 0.05 µM) was 0.656, the relative viability (NCI-H1650; first compound 0.1581 µM) was 0.623 and the relative viability (NCI-H1650; first compound 0.5 µM) was 0.394. It also gave a relative viability (NCI-H1651; first compound 0.005 µM) of 0.592, a relative viability (NCI-H1651; first compound 0.01581 µM) of 0.687 and a relative viability (NCI-H1651; first compound 0.1581 µM) of 0.561. The relative viability (NCI-H1651; first compound 0.5 µM) was 0.559, the relative viability (NCI-H1734; first compound 0.005 µM) was 0.455 and the relative viability (NCI-H1734; first compound 0.01581 µM) was 0.481. The relative viability (NCI-H1734; first compound 0.1581 µM) was 0.49, the relative viability (NCI-H1734; first compound 0.5 µM) was 0.465 and the relative viability (NCI-H1755; first compound 0.005 µM) was 0.425. The relative viability (NCI-H1755; first compound 0.01581 µM) was 0.434, the relative viability (NCI-H1755; first compound 0.05 µM) was 0.252 and the relative viability (NCI-H1755; first compound 0.1581 µM) was 0.406. It also gave a relative viability (NCI-H1755; first compound 0.5 µM) of 0.352, a relative viability (NCI-H1975; first compound 0.005 µM) of 0.295 and a relative viability (NCI-H1975; first compound 0.01581 µM) of 0.32. The relative viability (NCI-H1975; first compound 0.05 µM) was 0.304, the relative viability (NCI-H1975; first compound 0.1581 µM) was 0.287 and the relative viability (NCI-H1975; first compound 0.5 µM) was 0.235. The relative viability (NCI-H2023; first compound 0.005 µM) was 0.282, the relative viability (NCI-H2023; first compound 0.01581 µM) was 0.248 and the relative viability (NCI-H2023; first compound 0.05 µM) was 0.22. For the same compound, the relative viability (NCI-H2023; first compound 0.1581 µM) was 0.263, the relative viability (NCI-H2023; first compound 0.5 µM) was 0.269 and the relative viability (NCI-H2085; first compound 0.005 µM) was 0.449. For the same compound, the relative viability (NCI-H2085; first compound 0.01581 µM) was 0.49, the relative viability (NCI-H2085; first compound 0.05 µM) was 0.475 and the relative viability (NCI-H2085; first compound 0.1581 µM) was 0.507. The relative viability (NCI-H2085; first compound 0.5 µM) was 0.596, the relative viability (NCI-H358; first compound 0.005 µM) was 0.347 and the relative viability (NCI-H358; first compound 0.01581 µM) was 0.352. The relative viability (NCI-H358; first compound 0.05 µM) was 0.307, the relative viability (NCI-H358; first compound 0.1581 µM) was 0.379 and the relative viability (NCI-H358; first compound 0.5 µM) was 0.336. It also gave a relative viability (NCI-H441; first compound 0.005 µM) of 0.441, a relative viability (NCI-H441; first compound 0.01581 µM) of 0.606 and a relative viability (NCI-H441; first compound 0.05 µM) of 0.433. For the same compound, the relative viability (NCI-H441; first compound 0.1581 µM) was 0.529, the relative viability (NCI-H441; first compound 0.5 µM) was 0.458 and the relative viability (NCI-H460; first compound 0.005 µM) was 0.348. For the same compound, the relative viability (NCI-H460; first compound 0.01581 µM) was 0.419, the relative viability (NCI-H460; first compound 0.1581 µM) was 0.326 and the relative viability (NCI-H460; first compound 0.5 µM) was 0.334. It also gave a relative viability (NCI-H838; first compound 0.005 µM) of 0.435, a relative viability (NCI-H838; first compound 0.01581 µM) of 0.571 and a relative viability (NCI-H838; first compound 0.05 µM) of 0.541. For the same compound, the relative viability (NCI-H838; first compound 0.1581 µM) was 0.494 and the relative viability (NCI-H838; first compound 0.5 µM) was 0.486.
